Source: patent US12543733B2 (priority 2020, dated 2026)
≈ marks a conversion by molar mass, not a printed value. Structures can show the parent of a compound that is named as a salt. Where two headings read alike, the source gives them in different places.

What was measured:
[1] = system: adults of S. oryzae; settings: 24 hours of exposure time; cited from earlier work
[2] = system: Sitophilus oryzae; assay: Fumigation assay (fumigant toxicity) against adults of stored-product insects; assay type: in vivo; settings: for LC50: Sitophilus oryzae
Description: (§1) Culturing of Insects: The stored product insect rice weevil (S. oryzae L.) was reared on whole wheat and the rust-red flour beetle (T. castaneum Herbst.) was reared on wheat flour with 5% yeast. Rice weevil and flour beetle were maintained at 23.6±2.5° C., 70% relative humidity and a photoperiod of 12:12 (Light:Dark). Corcyra cephalonica were reared on medium consisting of finely ground rice and maize flour in the ratio 1:1 (w/w) under laboratory conditions (27±1° C., 75±5% R.H. with a 12:12 h light:dark cycle.

[3] = system: Tribolium castaneum; assay: as above; assay type: in vivo; settings: for LC50: Tribolium castaneum
Description: as §1

[4] = system: housefly; settings: cited from earlier work
[5] = system: Corcyra cephalonica; assay: Fumigation assay (fumigant toxicity) against adults of stored-product insects; assay type: in vivo; settings: C. cephalonica adults, mortality after 24 hours of exposure
Description: as §1

[6] = system: C. arietinum (Chick pea) seeds; assay: Seed germination test; assay type: in vivo; settings: for % germination (Mean ± SE): Chick pea
Description: (§2) In order to assess the effect of isosecotanapartholide on plant growth and seed germination, particularly 50 seeds of Chickpea and Green gram sample were treated with isosecotanapartholide at 50 and 100 ppm and germination tests were done at […] and 72 hours of exposure treatments. From each sample, twenty grains seeds were randomly selected from the treatment and soaked for about 30 minutes in distilled water, and kept on filter paper (paper towel) in a petri dish, moistened everyday with distilled water, and allowed to germinate at room temperature (25±2° C.). After 48 and 72 hours, germinated seeds were counted and percentage germination was determined as in Radwan et al. 2019 (Annals of Agricultural Sciences, 64(2), 183-187). Three replications of each were made for both treatment and control.
(§3) From each sample, twenty grains seeds were randomly selected from the treatment and soaked for about 30 minutes in distilled water, and kept on filter paper (paper towel) in a petri dish, moistened everyday with distilled water, and allowed to germinate at room temperature (25±2° C.). After 48 and 72 hours, germinated seeds were counted and percentage germination was determined as in Radwan et al. 2019 (Annals of Agricultural Sciences, 64(2), 183-187). Three replications of each were made for both treatment and control.

[7] = system: V. radiata (Green gram) seeds; assay: Seed germination test; assay type: in vivo; settings: for % germination (Mean ± SE): Green gram
Description: as §2, §3

[8] = system: C. arietinum plants; assay: Plant growth observation after seed treatment; assay type: in vivo
[9] = system: V. radiata plants; assay: Plant growth observation after seed treatment; assay type: in vivo
[10] = system: stored grain insect pests; assay: Fumigation assay, range over the tested species
Description: Measuring insecticidal activity of Isosecotanapartholide and Lemon grass oil (Cymbopogon flexuosus) by Fumigation Assay: The insecticidal activity of Isosecotanapartholide and lemon grass oil was assessed by fumigation assay against adults of stored-product insects (Corcyra cephalonica, Sitophilus oryzae and Tribolium castaneum). For each treatment, 50 individuals were tested for S. oryzae and T. castaneum; particularly adults were released into 0.85 L desiccators that served as the fumigation chambers. In each desiccator, a Whatman No. 1 filter circle (diameter: 9 cm) was placed to serve as an evaporating surface for injecting active extract. […] Five replicates were used for each dosage and LC50 was determined from dose response data using probit analysis. Insect mortality for isosecotanapartholide was recorded after 24 hours of exposure. Insects were considered dead when no leg or antennal movements were observed. Morality rate was calculated using Abbott formula for natural mortality in untreated (Abbott, 1925, Journal of Economic Entomology, 18, 265-267).
For each time point, 20 adults stored grain pests were used and determined percentage mortality.

[11] = comparison with other fumigants, fumigation bioassay, read-out: LC50
[12] = comparison with other fumigants, fumigation bioassay
[13] = in comparison with control, observed for 2 weeks

Structure (SMILES): C=CCN=C=S [allylisothiocyanate]
- concentration found toxic [1]: less than 6.3 μl/l

Structure (SMILES): C=CC(C)(O)CCC=C(C)C (centres unmarked) [Linalool]
- LC50 [2, 11]: 39.2 ng/mL (≈ 0.254 µM)
- LC50 [3, 11]: 49.8 ng/mL (≈ 0.323 µM)

Structure (SMILES): P [Phosphine]
- LC50 [2, 12]: 7.8 ng/mL (≈ 0.229 µM)
- LC50 [3, 12]: 9.8 ng/mL (≈ 0.288 µM)

Structure (SMILES): Cc1ccc(C(C)C)cc1O [Carvacol]
- LC50 [2, 12]: 14.2 ng/mL (≈ 0.0945 µM)
- LC50 [3, 12]: 17.0 ng/mL (≈ 0.113 µM)

Structure (SMILES): CBr [Methyl bromide]
- LC50 [2, 11]: 3.6 ng/mL
- LC50 [3, 11]: 8.4 ng/mL

Structure (SMILES): CCOC=O [Ethyl formate]
- LC50 [2, 11]: 0.72 ng/mL
- LC50 [3, 11]: 1.12 ng/mL

Structure (SMILES): CC12CCC(CC1)C(C)(C)O2 [1,8 Cineole]
- LC50 [2, 11]: 31 ng/mL (≈ 0.201 µM)
- LC50 [3, 11]: 47 ng/mL (≈ 0.305 µM)
- LD50 [4]: 118 μg/fly

Structure (SMILES): C=C1C(=O)O[C@H](C2=C(C)[C@@H](O)CC2=O)[C@H]1CCC(C)=O [Isosecotanapartholide, (4S,5S)-5-[(3S)-3-hydroxy-2methyl-5-oxocyclopent-1-en-1-yl]-3-methylidene-4-(3oxobutyl)dihydrofuran-2(3H)-one]
- LC90 [5]: 3.296 ng/mL (≈ 0.0118 µM)
- LC50 ([5]; Corcyra cephalonica): 1.83 ng/mL (≈ 0.00658 µM)
- LC90 ([2]; S. oryzae adults, fumigant toxicity, mortality after 24 hours of exposure): 3.274 ng/mL (≈ 0.0118 µM)
- LC50 ([2]; S. oryzae adults, fumigant toxicity, mortality after 24 hours of exposure, read-out: LC50): 1.82 ng/mL (≈ 0.00654 µM)
- LC50 [2, 11]: 1.82 ng/mL (≈ 0.00654 µM)
- LC90 ([3]; T. castaneum adults, fumigant toxicity, mortality after 24 hours of exposure): 3.946 ng/mL (≈ 0.0142 µM)
- LC50 ([3]; T. castaneum adults, fumigant toxicity, mortality after 24 hours of exposure, read-out: LC50): 2.19 ng/mL (≈ 0.00787 µM)
- LC50 [3, 11]: 2.19 ng/mL (≈ 0.00787 µM)
- adverse effect on seed germination ([6]; C. arietinum, in comparison with control): did not cause any adverse effect
- % germination (Mean ± SE) ([6]; 50 PPM, 24 hours): 96.00 ± 2.30%
- % germination (Mean ± SE) ([6]; 50 PPM, 72 hours): 97.33 ± 1.33%
- % germination (Mean ± SE) ([6]; 100 PPM, 24 hours): 94.67 ± 1.33%
- % germination (Mean ± SE) ([6]; 100 PPM, 72 hours): 96.00 ± 2.30%
- % germination (Mean ± SE) ([7]; 50 PPM, 24 hours): 93.33 ± 1.33%
- % germination (Mean ± SE) ([7]; 50 PPM, 72 hours): 94.67 ± 1.33%
- % germination (Mean ± SE) ([7]; 100 PPM, 24 hours): 96.00 ± 2.30%
- % germination (Mean ± SE) ([7]; 100 PPM, 72 hours): 96.00 ± 2.30%
- adverse effect on seed germination ([7]; V. radiata, in comparison with control): did not cause any adverse effect
- response on plant growth ([8]; 50 ppm, FIG. 4 (A)): comparable to control
- adverse effect on plant growth [8, 13]: did not cause any adverse effect
- response on plant growth ([9]; 50 ppm, FIG. 4 (B)): comparable to control
- adverse effect on plant growth [9, 13]: did not cause any adverse effect
- LC50 values [10]: 1.7 to 2.2 ng/mL
- LC90 range [10]: 3.2 to 4.0 ng/mL
